Two compounds from patent US20250129096A1, “ANNULATED 2-AMINO-3-CYANO THIOPHENES AND DERIVATIVES FOR THE TREATMENT OF CANCER” (Boehringer Ingelheim Int'l GmbH Corp., priority 2021, published 2025) can be followed below.

The structures appear in SMILES notation. Where two headings read alike, the source gives them in different places.

The target in one data set is T1, KRAS (G12D)::SOS1 (Homo sapiens, UniProt P01116, G12D).
T1 construct: KRAS (G12D) 1-169, N-terminal 6His-tag, C-terminal avi-tag; 6His-tag (N); purchased Xtal BioStructures, Inc. (KRAS G12D); Viva Biotech Ltd (SOS1)
T1 sequence (P01116 1-169 isoform P01116-2 G12D): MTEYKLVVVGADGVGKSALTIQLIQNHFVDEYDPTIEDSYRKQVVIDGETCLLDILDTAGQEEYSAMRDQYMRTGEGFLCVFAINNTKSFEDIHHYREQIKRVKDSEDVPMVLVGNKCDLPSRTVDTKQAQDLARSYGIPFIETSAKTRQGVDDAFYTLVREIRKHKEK
Description: KRAS::SOS1 AlphaScreen binding assay, KRAS G12D. On the procedure:
(§1) Low IC50 values in this assay setting are indicative of strong inhibition of protein-protein interaction between SOS1 and KRAS:
(§2) These assays measure the inhibitory effect of compounds on KRAS mutant protein-protein interactions using the Alpha Screen technology by Perkin Elmer.
(§3) For the chosen highest assay concentration of 100 μM, 150 nL of compound solution are transferred from a 10 mM DMSO compound stock solution. A series of eleven fivefold dilutions per compound are transferred to the assay plate, compound dilutions are tested in duplicates. DMSO are added as backfill to a total volume of 150 nL.
(§4) The assays run on a fully automated robotic system in a darkened room below 100 Lux. To 150 nl of compound dilution 10 μl of a mix including KRAS mutant protein, SOS1 (final assay concentrations see above) and GDP nucleotide (Sigma G7127; final assay concentration 10 μM) in assay buffer (1×PBS, 0.1% BSA, 0.05% Tween 20) are added into columns 1-24. After 30 minutes incubation time 5 μl of Alpha Screen bead mix in assay buffer are added into columns 1-23.
(§5) Plates are kept at room temperature in a darkened incubator. After an additional 60 minutes incubation time the signal is measured in a PerkinElmer Envision HTS Multilabel Reader using the AlphaScreen specs from PerkinElmer.
(§6) IC50 values are calculated and analyzed with Boehringer Ingelheim's MEGALAB IC50 application using a 4 parametric logistic model.
Background: Alpha assays give light when donor and acceptor beads are brought close together.

For the next data set, the target named is T2, KRAS (G12C)::SOS1 (Homo sapiens, UniProt P01116, C118S/C51S/C80L/G12C).
T2 construct: KRAS (G12C) 1-169, N-terminal 6His-tag for purification, cleaved off; 6His-tag (N, cleaved yes)
T2 sequence (P01116 1-169 isoform P01116-2 G12C/C51S/C80L/C118S): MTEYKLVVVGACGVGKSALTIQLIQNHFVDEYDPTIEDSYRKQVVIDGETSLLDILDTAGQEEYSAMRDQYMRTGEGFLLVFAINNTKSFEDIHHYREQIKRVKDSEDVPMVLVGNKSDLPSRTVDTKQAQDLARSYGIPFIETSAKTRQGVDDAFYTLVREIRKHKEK
Description: KRAS::SOS1 AlphaScreen binding assay, KRAS G12C. The protocol: as §1, §2, §3, §4, §5, §6

For the next data set, the target named is KRAS G12D Ba/F3 cells (Homo sapiens, UniProt P01116, G12D, cells depend on it). Description: Ba/F3 proliferation assay, KRAS G12D. The conditions noted are these: 72 h, AlamarBlue; read-out: KRAS G12D Ba/F3 IC50. It counts as cell-based. The protocol:
(§7) To generate KRASG12-dependent Ba/F3 models, Ba/F3 cells are transduced with retroviruses containing vectors that harbor KRASG12 isoforms. Platinum-E cells (Cell Biolabs) are used for retrovirus packaging. Retrovirus is added to Ba/F3 cells. To ensure infection, 4 μg/mL polybrene is added and cells are spinfected. […] Cells with an infection efficiency of 10% to 20% are further cultivated and puromycin selection with 1 μg/mL is initiated. As a control, parental Ba/F3 cells are used to show selection status. Selection is considered successful when parental Ba/F3 cells cultures died. To evaluate the transforming potential of KRASG12 mutations, the growth medium is no longer supplemented with IL-3. Ba/F3 cells harboring the empty vector are used as a control. Approximately ten days before conducting the experiments, puromycin is left out. […] All treatments are performed in technical duplicates. […] AlamarBlue™(ThermoFisher), a viability stain, is added and fluorescence measured in the PerkinElmer Envision HTS Multilabel Reader. The raw data are imported into and analyzed with the Boehringer Ingelheim proprietary software MegaLab (curve fitting based on the program PRISM, GraphPad Inc.).
For orientation: The colour change of resazurin is a common sign of viable cells or microbes.

A further data set addresses KRAS G12C Ba/F3 cells (Homo sapiens, UniProt P01116, G12C, cells depend on it). The data set is described as follows: Ba/F3 proliferation assay, KRAS G12C. The data set is classed as cell-based. The conditions noted are these: 72 h, AlamarBlue; read-out: KRAS G12C Ba/F3 IC50. On the procedure:
as §7

Data set [1] relates to NCI-H358 cells (NSCLC, G12C). Description: NCI-H358 CTG proliferation assay (120 h), assay 2. It counts as cell-based. The conditions noted are these: Homo sapiens, CellTiter-Glo, 384-well, 200 cells per well. On the procedure: NCI-1H358 cells (ATCC No. CRL-5807) are dispensed into white bottom opaque 96 well plates (Perkin Elmer cat no. 5680) at a density of 2000 cells per well in 100 μL RPM 1-1640 ATCC-Formulation (Gibco #A10491)+10% FCS (fetal calf serum) (assay 1) or into black 384-well plates, flat and clear bottom (Greiner, PNr. 781091) at a density of 200 cells per well in 60 μl RPMI-1640 ATCC-Formulation (Gibco #A10491)+10% FCS (fetal calf serum) (assay 2). […] Compounds (10 mM stock in DMSO) are added at logarithmic dose series using the HP Digital Dispenser D300 (Tecan) (assay 1) or the ECHO acoustic liquid handler system (Beckman Coulter) (assay 2), normalizing for added DMSO and including DMSO controls. For the TO time point measurement, untreated cells are analyzed at the time of compound addition. Plates are incubated for 120 h, and cell viability is measured using CellTiter-Glo luminescent cell viability reagent (Promega product code G7570). Viability (stated as percent of control) is defined as relative luminescence units RLU of each well divided by the RLU of cells in DMSO controls. IC50 values are determined from viability measurements by non-linear regression using a four-parameter model.
In general terms: In ATP-based viability assays light output follows the ATP content of the culture.

Another data set has as its target T3, CYP3A4 (Homo sapiens, UniProt P08684).
T3 construct: assayed in human liver microsomes (0.02 mg/mL) with midazolam (15 μM) as a substrate; from tissue; host or cells: human liver microsomes
The data set is described as follows: Mechanism based inhibition of CYP3A4 assay (MBI 3A4). It counts as in vitro ADME. The conditions noted are these: 25 uM, hydroxy-midazolam formation after 30 min preincubation relative to 0 min, human liver microsomes. The protocol: After preincubation, the incubate is diluted 1:10 and the substrate midazolam is added for the main incubation (15 min). The main incubation is quenched with acetonitrile and the formation of hydroxy-midazolam is quantified via LC/MS-MS. The formation of hydroxy-midazolam from the 30 min preincubation relative to the formation from the 0 min preincubation is used as a readout. Values of less than 100% mean that the substrate midazolam is metabolized to a lower extent upon 30 min preincubation compared to 0 min preincubation. In general low effects upon 30 min preincubation are desired (corresponding to values close to 100%/not different to the values determined with water control).

A short description of data set [2]: Solubility measurement (DMSO solution precipitation method). It counts as physicochemical. As to conditions: aqueous buffer, kinetic from dmso stock, ambient temperature. The protocol: The DMSO solution is diluted with an aqueous medium (McIlvaine buffer with pH=4.5 or 6.8) to a final concentration of 250 μM. After 24 h of shaking at ambient temperature a potentially formed precipitate is removed by filtration. The concentration of the test compound in the filtrate is determined by LC-UV methods by calibrating the signal to the signal of a reference solution with complete dissolution of the test compound in acetonitrile/water (1:1) with known concentration.

The next data set is described as follows: Caco-2 assay. It counts as in vitro ADME. The conditions noted are these: human; for Papp A→B at 90 min, 10 μM: Caco-2, apical to basolateral, pH 7.4, read-out: Caco PappAB; for efflux ratio at 90 min, 10 μM: Caco-2, pH 7.4, efflux ratio PappBA/PappAB, read-out: Caco ER. From the text: The assay provides information on the potential of a compound to pass the cell membrane, on the extent of oral absorption as well as on whether the compound is actively transported by uptake and/or efflux transporters. Permeability measurements across polarized, confluent Caco-2 cell monolayers grown on permeable filter supports (Corning, catalog #3391) are used. […] The receiver and donor compartments contain 0.25% bovine serum albumine (BSA) in assay buffer. Passive diffusion and/or active transport of compounds across the monolayer is measured in both apical to basolateral (a-b) and basolateral to apical (b-a) direction. a-b permeability (PappAB) represents drug absorption from the intestine into the blood and b-a permeability (PappBA) drug secretion from the blood back into the intestine via both passive permeability as well as active transport mechanisms mediated by efflux and uptake transporters that are expressed on the Caco-2 cells. After a pre-incubation of 25-30 min at 37° C., at predefined time points (0, 30, 60 and 90 min), samples were taken from the receiver and donor compartment, respectively. Concentrations of test compounds in samples were measured by HPLC/MS/MS, samples from the donor compartment were diluted 1:50 (v:v) with assay buffer, samples from receiver compartment were measured without dilution.
Apparent permeabilities in a-b (PappAB) and b-a (PappBA) directions are calculated according to the formula:
[formula] • Vrec [mL]: buffer volume in receiver compartment • Cdon [μmol/mL]: concentration of test compound in donor compartment at t=0 • ΔCrec: difference between concentrations of test compound in receiver compartment at start and end of incubation time • Δt: Incubation time • Vrec·ΔCrec/Δt [μmol/min]: Amount of compound transferred to receiver compartment per time • A [cm^2]: filter surface
Caco-2 efflux ratios (ER) are calculated as the ratio of PappBA/PappAB.

Where [3] appears, read: McIlvaine buffer pH 4.5, 24 h, read-out: solubility pH 4.5.
Setting [4] is: McIlvaine buffer pH 6.8, 24 h, read-out: solubility pH 6.8.

Broadly, the IC50 is the concentration that gives 50% inhibition. Lower therefore signals greater potency in that assay. Usually solubility stands for the concentration that dissolves in the medium under given conditions.

T3 sequence (P08684 whole entry): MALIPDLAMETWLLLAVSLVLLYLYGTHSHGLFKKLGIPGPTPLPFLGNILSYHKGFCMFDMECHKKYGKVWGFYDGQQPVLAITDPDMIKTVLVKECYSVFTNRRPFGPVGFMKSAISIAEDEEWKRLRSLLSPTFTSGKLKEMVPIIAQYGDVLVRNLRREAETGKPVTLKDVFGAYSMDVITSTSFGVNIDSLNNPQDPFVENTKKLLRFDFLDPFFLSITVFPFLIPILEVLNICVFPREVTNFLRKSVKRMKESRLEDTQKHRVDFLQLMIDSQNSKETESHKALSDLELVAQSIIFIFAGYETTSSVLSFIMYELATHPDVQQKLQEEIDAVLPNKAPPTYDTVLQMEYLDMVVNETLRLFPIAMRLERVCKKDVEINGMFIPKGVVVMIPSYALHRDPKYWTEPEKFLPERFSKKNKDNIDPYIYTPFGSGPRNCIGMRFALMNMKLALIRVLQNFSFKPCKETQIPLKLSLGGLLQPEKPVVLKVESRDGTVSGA
Sequence of KRAS G12C Ba/F3 cells (P01116 whole entry G12C): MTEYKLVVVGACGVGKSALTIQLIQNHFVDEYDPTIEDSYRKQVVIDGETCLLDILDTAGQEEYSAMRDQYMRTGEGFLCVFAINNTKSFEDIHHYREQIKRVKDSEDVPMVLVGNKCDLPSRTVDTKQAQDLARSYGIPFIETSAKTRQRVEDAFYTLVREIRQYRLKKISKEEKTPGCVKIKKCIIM
Sequence of KRAS G12D Ba/F3 cells (P01116 whole entry G12D, canonical isoform): as the sequence (P01116 whole entry G12C) above, with C12D counted along it

As to `C[C@H](Oc1nccc(-c2onc3c2CCC[C@@]32CCCc3sc(N)c(C#N)c32)n1)[C@@H]1CCCN1C` [Ib-1], the concentration for half-maximal inhibition (IC50) is 2 nM on KRAS (G12D)::SOS1, 3 nM on KRAS (G12C)::SOS1 and 1440 nM in data set [1]. The GI50 was found to be 24 nM at KRAS G12D Ba/F3 cells and 51 nM on KRAS G12C Ba/F3 cells. Further, on CYP3A4, the “MBI 3A4” value worked out at 54%. The solubility at 24 h in data set [2] (setting [3]) and in data set [2] (setting [4]) was above 110 µg/mL each time. For the same compound, the Papp A→B at 90 min, 10 μM in “Caco-2 assay” was 26 ×10⁻⁶ cm/s. Also, the efflux ratio at 90 min, 10 μM in “Caco-2 assay” is 1.3.

As for `C[C@H](Oc1nccc(-c2noc3c2CCC[C@@]32CCCc3sc(N)c(C#N)c32)n1)[C@@H]1CCCN1C` [IIb-6], the IC50 on KRAS (G12D)::SOS1 stood at 2 nM; at KRAS (G12C)::SOS1, 4 nM; in data set [1] it was 402 nM. Besides, the GI50 on KRAS G12D Ba/F3 cells stood at 13 nM; on KRAS G12C Ba/F3 cells it was 19 nM. In addition, the “MBI 3A4” value at CYP3A4 turned out to be 52%. Also, the solubility at 24 h in data set [2] (setting [3]) and in data set [2] (setting [4]) was above 110 µg/mL throughout. Further, the Papp A→B at 90 min, 10 μM in the data set “Caco-2 assay” came out at 21 ×10⁻⁶ cm/s. Moreover, the efflux ratio at 90 min, 10 μM in the data set “Caco-2 assay” was 1.3.
